Experimental data from patent US10703764B2, “Benzopiperazine compositions as BET bromodomain inhibitors” (FORMA Therapeutics, Inc., priority 2013, dated 2020).

Tests used:
[1] = biological target: T1, BRD4 BD2 (Homo sapiens, UniProt O60885); experiment: AlphaScreen binding assay, BRD4 Bromodomain 2
T1 construct: made in house
Outline: (§1)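 Compound dilution series were mixed with His-tagged BRD4 bromodomain and biotinylated tetra-acetylated H4 (1-21) peptide at pH 7.3 (BD1 and peptide at 50 nM, BD2 and peptide at 100 nM). Donor and acceptor beads were then added, and plates were equilibrated at least 1 h before reading. IC50 values were fitted with a four-parameter logistic model.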

[2] = tested on: MV4-11 cells; experiment: Oncology cell growth assay (3-day proliferation, CellTiter-Glo); assay type: cell-based; conditions: Homo sapiens, MV4-11, 72 h, AML cell line MV4-11, 72 hours, compounds grouped by IC50 range, read-out: MV4-11 IC50 (inhibition of proliferation, gIC50)
Outline: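 A 3-day proliferation test used MV4-11 cells seeded at 3000 per well with eight compound concentrations (10 μM top, 3-fold dilution) at 37° C in 5% CO2. CellTiter-Glo luminescence defined viable cell signal. A four-parameter logistic curve against DMSO and background wells gave the gIC50.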

[3] = biological target: T2, BRD4 BD1 (Homo sapiens, UniProt O60885); experiment: AlphaScreen binding assay, BRD4 Bromodomain 1
T2 construct: made in house
Outline: as §1

Structure (SMILES) | IC50 [1] | IC50 [2] | IC50 [3]
COc1cc(-c2ccc3c(c2)N(C(=O)c2ccco2)C[C@H](C)N3C(C)=O)ccn1 [Example I-863] | 50 to 500 nM | > 500 nM | 1000 to 10000 nM
CC(=O)N1c2ccc(-c3cc(N4CCCS4(=O)=O)cc(C(F)(F)F)c3)cc2N(C(=O)OC(C)C)C[C@@H]1C [Example I-1166] | 50 to 500 nM | > 500 nM | 100 to 1000 nM
CC(=O)N1c2ccc(-c3cccc(S(N)(=O)=O)c3)cc2N(C(=O)c2ccco2)C[C@@H]1C [Example I-841] | < 50 nM | 100 to 500 nM | 1000 to 10000 nM
CC(=O)N1c2ccc(-c3ccc(NS(C)(=O)=O)c(F)c3)cc2N(C(=O)OC(C)C)C[C@@H]1C [Example I-1183] | < 50 nM | 100 to 500 nM | 100 to 1000 nM
CC(=O)N1c2ccc(-c3ccc(S(=O)(=O)CC4CC4)cc3)cc2N(C(=O)C2CC2)C[C@@H]1C [Example I-1074] | 50 to 500 nM | > 500 nM | 1000 to 10000 nM
CC(=O)N1c2ccc(-c3ccc(S(C)(=O)=O)cc3)cc2N(C(=O)OC2CCC2)C[C@@H]1C [Example I-493] | 50 to 500 nM | 100 to 500 nM | 100 to 1000 nM
CC(=O)N1c2ccc(-c3cnn(C(C)C)c3)cc2N(C(=O)C2CC2)C[C@@H]1C [Example I-647] | 50 to 500 nM | > 500 nM | 100 to 1000 nM
CCOC(=O)N1C[C@H](C)N(C(C)=O)c2ccc(-c3cccc(NS(=O)(=O)N(C)C)c3)cc21 [Example I-1145] | 50 to 500 nM | > 500 nM | 1000 to 10000 nM
COc1ccc(C#N)cc1OC(=O)N1C[C@H](C)N(C(C)=O)c2ccc(-c3cnn(C4CC4)c3)cc21 [Example I-526] | 50 to 500 nM | 100 to 500 nM | 100 to 1000 nM
CC(=O)N1c2ccc(-c3cnn(CCO)c3)cc2N(C(=O)N(C)c2ccccc2)C[C@@H]1C [Example I-1212] | > 500 nM | > 500 nM | > 10000 nM
CC(=O)N1c2ccc(-c3cnn(Cc4cncnc4)c3)cc2N(C(=O)C2CC2)C[C@@H]1C [Example I-128, (S)-1-(4-(cyclopropanecarbonyl)-2-methyl-6-(1-(pyrimidin-5-ylmethyl)-1H-pyrazol-4-yl)-3,4-dihydroquinoxalin-1(2H)-yl)ethanone] | < 50 nM | 100 to 500 nM | 1000 to 10000 nM
CC(=O)N1c2ccc(-c3ccc(S(=O)(=O)NC(C)(C)C)cc3)cc2N(C(=O)OC2CCCCC2)C[C@@H]1C [Example I-1265] | 50 to 500 nM | 100 to 500 nM | 100 to 1000 nM
CC(=O)N1c2ccc(-c3ccc(C(=O)N4CC[C@@H](N)C4)cc3)cc2N(C(=O)OC(C)C)C[C@@H]1C [Example I-532] | 50 to 500 nM | 100 to 500 nM | 100 to 1000 nM
CC(=O)N1c2ccc(-c3cnn(C4CC4)c3)cc2N(c2nn(C)c3cnccc23)C[C@@H]1C [Example I-185, 1-[(2S)-6-(1-cyclopropyl-1H-pyrazol-4-yl)-2-methyl-4-{1-methyl-1H-pyrazolo[3,4-c]pyridin-3-yl}-1,2,3,4-tetrahydroquinoxalin-1-yl]ethan-1-one] | < 50 nM | < 100 nM | 100 to 1000 nM
CC(=O)N1c2ccc(-c3cnn(C4CC4)c3)cc2N(C(=O)Oc2ccccn2)C[C@@H]1C [Example I-1322] | < 50 nM | < 100 nM | 100 to 1000 nM
CC(=O)N1c2ccc(-c3ccc(NC(=O)N(C)C)cc3)cc2N(C(=O)c2ccco2)C[C@@H]1C [Example I-284] | < 50 nM | 100 to 500 nM | 1000 to 10000 nM
CC(=O)N1c2ccc(-c3cnn(C4COC4)c3)cc2N(C(=O)C2(C)CC2)C[C@@H]1C [Example I-114, (S)-1-(2-methyl-4-(1-methylcyclopropanecarbonyl)-6-(1-(oxetan-3-yl)-1H-pyrazol-4-yl)-3,4-dihydroquinoxalin-1(2H)-yl)ethanone] | 50 to 500 nM | > 500 nM | > 10000 nM
COC(=O)N1c2ccc(-c3cn(C)nn3)cc2N(C(=O)OC(C)C)C[C@@H]1C [Example I-490] | 50 to 500 nM | > 500 nM | 100 to 1000 nM
CC(=O)N1c2ccc(-c3cnn(C(F)F)c3)cc2N(C(=O)OC(C)C)C[C@@H]1C [Example I-336] | 50 to 500 nM | > 500 nM | 100 to 1000 nM
CC(=O)N1c2ccc(-c3ccc(S(N)(=O)=O)cc3)cc2N(C(=O)OC2CCCCC2)C[C@@H]1C [Example I-1233] | 50 to 500 nM | 100 to 500 nM | 100 to 1000 nM
COC(=O)N1c2ccc(-c3cnn(C4CCOCC4)c3)cc2N(C(=O)OC(C)C)C[C@@H]1C [Example I-322] | 50 to 500 nM | 100 to 500 nM | 100 to 1000 nM
